Results reported in publication PMC10818416, “Design, Synthesis, and Evaluation of New Hybrid Derivatives of 5,6-Dihydro-4H-pyrrolo[3,2,1-ij]quinolin-2(1H)-one as Potential Dual Inhibitors of Blood Coagulation Factors Xa and XIa” (Molecules, 2024).
Where two headings read alike, the source gives them in different places.

Tests used:
Experiment in all cases: chromogenic substrate hydrolysis, […] nm
Format in all cases: biochemical
factor XIa (FXIa) [1] = target: T1, factor XIa (FXIa) (Homo sapiens, UniProt P03951)
T1 construct: gene F11
T1 sequence (P03951 19-387): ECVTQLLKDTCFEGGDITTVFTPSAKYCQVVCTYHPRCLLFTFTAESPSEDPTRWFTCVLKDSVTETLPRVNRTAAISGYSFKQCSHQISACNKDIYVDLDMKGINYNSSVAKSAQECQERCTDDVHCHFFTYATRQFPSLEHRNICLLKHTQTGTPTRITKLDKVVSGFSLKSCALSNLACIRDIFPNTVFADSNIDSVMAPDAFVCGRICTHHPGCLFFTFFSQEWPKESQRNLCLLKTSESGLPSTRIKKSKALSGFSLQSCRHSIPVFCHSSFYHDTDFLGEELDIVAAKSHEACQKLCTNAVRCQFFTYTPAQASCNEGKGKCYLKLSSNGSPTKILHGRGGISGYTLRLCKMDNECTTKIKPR
T1 sequence (P03951 388-625): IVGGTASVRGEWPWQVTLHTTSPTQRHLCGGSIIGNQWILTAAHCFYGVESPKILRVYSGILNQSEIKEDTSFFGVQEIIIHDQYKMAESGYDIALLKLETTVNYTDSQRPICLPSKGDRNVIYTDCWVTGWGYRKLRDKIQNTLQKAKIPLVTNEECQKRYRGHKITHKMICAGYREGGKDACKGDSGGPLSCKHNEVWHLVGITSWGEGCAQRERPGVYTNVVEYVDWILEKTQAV

factor Xa (FXa) [2] = target: T2, factor Xa (FXa) (Homo sapiens, UniProt P00742)
T2 construct: gene F10
T2 sequence (P00742 41-179): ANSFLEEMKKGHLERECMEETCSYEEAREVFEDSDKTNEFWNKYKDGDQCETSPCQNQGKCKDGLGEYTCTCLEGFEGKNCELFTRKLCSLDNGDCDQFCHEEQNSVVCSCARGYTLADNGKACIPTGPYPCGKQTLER
T2 sequence (P00742 235-488): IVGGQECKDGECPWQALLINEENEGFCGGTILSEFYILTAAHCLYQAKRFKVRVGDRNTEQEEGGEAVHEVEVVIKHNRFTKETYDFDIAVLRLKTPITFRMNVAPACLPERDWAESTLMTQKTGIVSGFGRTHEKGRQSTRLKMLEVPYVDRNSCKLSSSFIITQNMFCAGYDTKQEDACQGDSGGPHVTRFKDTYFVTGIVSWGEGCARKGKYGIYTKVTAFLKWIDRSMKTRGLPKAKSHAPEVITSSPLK

thrombin = target: T3, thrombin (Homo sapiens, UniProt P00734); details: […] enzyme, […] Tos-Gly-Pro-Arg-pNA, pH […], up to […] DMSO
T3 construct: gene F2

factor XIa (FXIa) [3] = target: T1, factor XIa (FXIa); details: […] enzyme, […] S2366, pH […], up to […] DMSO
factor Xa (FXa) [4] = target: T2, factor Xa (FXa); details: […] enzyme, […] S2765, pH […], up to […] DMSO

IC50 (factor XIa (FXIa) [1]) [µM]	IC50 (factor Xa (FXa) [2]) [µM]	SMILES	other results
–	–	COC(=O)C=C1SC(NN=C2C(=O)N3c4c2cc(I)cc4C(C)CC3(C)C)=NC1=O (mixture of isomers) [3e, Methyl 2-(2-(2-(8-iodo-4,4,6-trimethyl-2-oxo-5,6-dihydro-4H-pyrrolo[3,2,1-ij]quinolin-1(2H)-ylidene)hydrazineyl)-4-oxothiazol-5(4H)-ylidene)acetate]	IC50 (factor XIa (FXIa) [1]; […] enzyme, […] S2366, pH […], up to […] DMSO): 8.03 ± 0.68 µM; IC50 (factor Xa (FXa) [2]; […] enzyme, […] S2765, pH […], up to […] DMSO): 4.23 ± 0.31 µM; Percent Inhibition of Thrombin at 30 μM (thrombin): 96%
–	–	COC(=O)C=C1SC(NN=C2C(=O)N3c4c2cc(C)cc4C(C)(c2ccc(Cl)cc2)CC3(C)C)=NC1=O (mixture of isomers) [3j, Methyl 2-(2-(2-(6-(4-chlorophenyl)-4,4,6,8-tetramethyl-2-oxo-5,6-dihydro-4H-pyrrolo[3,2,1-ij]quinolin-1(2H)-ylidene)hydrazineyl)-4-oxothiazol-5(4H)-ylidene)acetate]	Percent Inhibition at 30 μM / XIa (factor XIa (FXIa) [3]): 83%
8.1 ± 0.2	5.76 ± 1.08	COC(=O)/C=C1\SC(N/N=C2\C(=O)N3c4c2cc(OC)cc4C(C)CC3(C)C)=NC1=O (stereo not shown) [3b, Methyl (Z)-2-(2-(2-((Z)-8-methoxy-4,4,6-trimethyl-2-oxo-5,6-dihydro-4H-pyrrolo[3,2,1-ij]quinolin-1(2H)-ylidene)hydrazineyl)-4-oxothiazol-5(4H)-ylidene)acetate]	–
7.97 ± 0.63	4.02 ± 0.6	COC(=O)/C=C1\SC(N/N=C2\C(=O)N3c4c(cc(C)c(C)c42)C(C)CC3(C)C)=NC1=O (stereo not shown) [3f, Methyl (Z)-2-(4-oxo-2-(2-((Z)-4,4,6,8,9-pentamethyl-2-oxo-5,6-dihydro-4H-pyrrolo[3,2,1-ij]quinolin-1(2H)-ylidene)hydrazineyl)thiazol-5(4H)-ylidene)acetate]	–
12.2 ± 0.2	2.84 ± 0.04	COC(=O)/C=C1\SC(N/N=C2\C(=O)N3c4c2cc(Cl)cc4C(C)CC3(C)C)=NC1=O (stereo not shown) [3c, Methyl (Z)-2-(2-(2-((Z)-8-chloro-4,4,6-trimethyl-2-oxo-5,6-dihydro-4H-pyrrolo[3,2,1-ij]quinolin-1(2H)-ylidene)hydrazineyl)-4-oxothiazol-5(4H)-ylidene)acetate]	–
4.59 ± 0.54	1.17 ± 0.26	COC(=O)/C=C1\SC(N/N=C2\C(=O)N3c4c2cc(Cl)cc4C(C)(c2ccc(Cl)cc2)CC3(C)C)=NC1=O (stereo not shown) [3k, Methyl (Z)-2-(2-(2-((Z)-8-chloro-6-(4-chlorophenyl)-4,4,6-trimethyl-2-oxo-5,6-dihydro-4H-pyrrolo[3,2,1-ij]quinolin-1(2H)-ylidene)hydrazineyl)-4-oxothiazol-5(4H)-ylidene)acetate]	–
3.87 ± 0.33	1.83 ± 0.05	COC(=O)/C=C1\SC(N/N=C2\C(=O)N3c4c2cc(Br)cc4C(C)(c2ccccc2)CC3(C)C)=NC1=O (stereo not shown) [3p, Methyl (Z)-2-(2-(2-((Z)-8-bromo-4,4,6-trimethyl-2-oxo-6-phenyl-5,6-dihydro-4H-pyrrolo[3,2,1-ij]quinolin-1(2H)-ylidene)hydrazineyl)-4-oxothiazol-5(4H)-ylidene)acetate]	–
7.21 ± 0.22	1.34 ± 0.16	COC(=O)/C=C1\SC(N/N=C2\C(=O)N3c4c2cc(Cl)cc4C(C)(c2ccccc2)CC3(C)C)=NC1=O (stereo not shown) [3o, Methyl (Z)-2-(2-(2-((Z)-8-chloro-4,4,6-trimethyl-2-oxo-6-phenyl-5,6-dihydro-4H-pyrrolo[3,2,1-ij]quinolin-1(2H)-ylidene)hydrazineyl)-4-oxothiazol-5(4H)-ylidene)acetate]	–
11.5 ± 0.98	1.86 ± 0.07	COC(=O)/C=C1\SC(N/N=C2\C(=O)N3c4c2cccc4C(C)(c2ccccc2)CC3(C)C)=NC1=O (stereo not shown) [3n, Methyl (Z)-2-(4-oxo-2-(2-((Z)-4,4,6-trimethyl-2-oxo-6-phenyl-5,6-dihydro-4H-pyrrolo[3,2,1-ij]quinolin-1(2H)-ylidene)hydrazineyl)thiazol-5(4H)-ylidene)acetate]	–
–	–	COC(=O)/C=C1\SC(N/N=C2\C(=O)N3c4c2cccc4C(C)(c2ccc(Cl)cc2)CC3(C)C)=NC1=O (stereo not shown) [3i, Methyl (Z)-2-(2-(2-((Z)-6-(4-chlorophenyl)-4,4,6-trimethyl-2-oxo-5,6-dihydro-4H-pyrrolo[3,2,1-ij]quinolin-1(2H)-ylidene)hydrazineyl)-4-oxothiazol-5(4H)-ylidene)acetate]	Percent Inhibition at 30 μM / Xa (factor Xa (FXa) [4]): 87%
–	–	COC(=O)/C=C1\SC(N/N=C2\C(=O)N3c4c2cc(Br)cc4C(C)CC3(C)C)=NC1=O (stereo not shown) [3d, Methyl (Z)-2-(2-(2-((Z)-8-bromo-4,4,6-trimethyl-2-oxo-5,6-dihydro-4H-pyrrolo[3,2,1-ij]quinolin-1(2H)-ylidene)hydrazineyl)-4-oxothiazol-5(4H)-ylidene)acetate]	Percent Inhibition at 30 μM / XIa (factor XIa (FXIa) [3]): 96%
3.61 ± 1.7	1.74 ± 0.21	COC(=O)/C=C1\SC(N/N=C2\C(=O)N3c4c2cc(Br)cc4C(C)(c2ccc(Cl)cc2)CC3(C)C)=NC1=O (stereo not shown) [3l, Methyl (Z)-2-(2-(2-((Z)-8-bromo-6-(4-chlorophenyl)-4,4,6-trimethyl-2-oxo-5,6-dihydro-4H-pyrrolo[3,2,1-ij]quinolin-1(2H)-ylidene)hydrazineyl)-4-oxothiazol-5(4H)-ylidene)acetate]	–
